According to US20240124418A1 (BioTheryX, Inc., priority 2020, published 2024):

Test system: TNF-α
Assay: Cell-based TNF-α inhibition assay (LPS-induced PBMCs, Meso Scale)
Details: PBMC, PBMCs pretreated 1 h, LPS 100 ng/mL 18-24 h, percentage of stimulated DMSO control; for inhibition at 0.1 µM: compound concentration 0.1 μM; for inhibition at 1 µM: compound concentration 1 μM
Method: Example B1. Cell-Based TNF-α Inhibition Assay
Frozen primary blood mononuclear cells (PBMCs) were quick thawed, washed once with RPMI 1640 media supplemented with 10% fetal bovine serum, 1% penicillin, and 1% streptomycin, and plated in a 96 well plate at 200,000 cells per well. The cells were pretreated with DMSO only as a control or a compound for 1 h, and then induced with LPS (lipopolysaccharide) (100 ng/mL) for 18-24 h. The supernatant was analyzed for TNF-α using the Meso Scale assay. Compound activity was determined as a percentage of the stimulated DMSO control. The results are summarized in Table 1, where A represents a percent inhibition value ≥60%; B represents a percent inhibition value <60% and ≥40%; C represents a percent inhibition value <40% and ≥20%; and D represents a single percent inhibition value <20%.

| Structure (SMILES) | inhibition at 0.1 µM [%] | inhibition at 1 µM [%] |
| --- | --- | --- |
| CCOc1cc([C@@H](CS(C)(=O)=O)N2C(=O)c3cccc(NC(=O)CN4CCN(CCCCN5CCC(c6cc7c(cc6F)C(=O)N(C6CCC(=O)NC6=O)C7)CC5)CC4)c3C2=O)ccc1OC (stereo partly drawn) [Compound A28, 2-[4-(4-{4-[2-(2,6-Dioxopiperidin-3-yl)-6-fluoro-1-oxo-2,3-dihydro-1H-isoindol-5-yl]piperidin-1-yl}butyl)piperazin-1-yl]-N-{2-[(1S)-1-(3-ethoxy-4-methoxyphenyl)-2-methanesulfonylethyl]-1,3-dioxo-2,3-dihydro-1H-isoindol-4-yl}acetamide] | 40 to 60 | ≥ 60 |
| CCOc1cc([C@@H](CS(C)(=O)=O)N2C(=O)c3cccc(NC(=O)CCCCCCCN4CCN(CC(=O)Nc5ccc6c(C7CCC(=O)NC7=O)nn(C)c6c5)CC4)c3C2=O)ccc1OC (stereo partly drawn) [Compound A77, 8-[4-({[3-(2,6-Dioxopiperidin-3-yl)-1-methyl-1H-indazol-6-yl]carbamoyl}-methyl)piperazin-1-yl]-N-{2-[(1S)-1-(3-ethoxy-4-methoxyphenyl)-2-methanesulfonylethyl]-1,3-dioxo-2,3-dihydro-1H-isoindol-4-yl}octanamide] | ≥ 60 | ≥ 60 |
| CCOc1cc([C@@H](CS(C)(=O)=O)N2C(=O)c3cccc(NC(=O)CCCN4CCN(CCNCc5ccc(OCc6scc7c6CN(C6CCC(=O)NC6=O)C7=O)cc5)CC4)c3C2=O)ccc1OC (stereo partly drawn) [Compound A45, 4-[4-(2-{[(4-{[5-(2,6-Dioxopiperidin-3-yl)-4-oxo-4H,5H,6H-thieno[3,4-c]pyrrol-1-yl]methoxy}phenyl)methyl]amino}ethyl)piperazin-1-yl]-N-{2-[(1S)-1-(3-ethoxy-4-methoxy-phenyl)-2-methanesulfonylethyl]-1,3-dioxo-2,3-dihydro-1H-isoindol-4-yl}butanamide] | ≥ 60 | ≥ 60 |
| CCOc1cc([C@@H](CS(C)(=O)=O)N2C(=O)c3cccc(NC(=O)CCCCCCOc4cc(-c5scnc5C)ccc4CNC(=O)[C@@H]4C[C@@H](O)CN4C(=O)[C@@H](NC(C)=O)C(C)(C)C)c3C2=O)ccc1OC [Compound A76, (2S,4R)-1-[(2S)-2-Acetamido-3,3-dimethylbutanoyl]-N-[(2-{[6-({2-[(1S)-1-(3-ethoxy-4-methoxyphenyl)-2-methanesulfonylethyl]-1,3-dioxo-2,3-dihydro-1H-isoindol-4-yl}-carbamoyl)hexyl]oxy}-4-(4-methyl-1,3-thiazol-5-yl)phenyl)methyl]-4-hydroxypyrrolidine-2-carboxamide] | 40 to 60 | ≥ 60 |
| CCOc1cc([C@@H](CS(C)(=O)=O)N2C(=O)c3cccc(NC(=O)CCCCCN4CCC(N5CCC(c6cc7c(cc6F)C(=O)N(C6CCC(=O)NC6=O)C7)CC5)CC4)c3C2=O)ccc1OC (stereo partly drawn) [Compound A29, 6-{4-[2-(2,6-Dioxopiperidin-3-yl)-6-fluoro-1-oxo-2,3-dihydro-1H-isoindol-5-yl]-[1,4′-bipiperidin]-1′-yl}-N-{2-[(1S)-1-(3-ethoxy-4-methoxyphenyl)-2-methanesulfonylethyl]-1,3-dioxo-2,3-dihydro-1H-isoindol-4-yl}hexanamide] | 40 to 60 | ≥ 60 |
| CCOc1cc([C@@H](CS(C)(=O)=O)N2C(=O)c3cc(CCCN4CCC(c5cc(F)cc6c5CN(C5CCC(=O)NC5=O)C6=O)CC4)cc(NC(C)=O)c3C2=O)ccc1OC (stereo partly drawn) [Compound A5, N-(6-(3-(4-(2-(2,6-Dioxopiperidin-3-yl)-6-fluoro-1-oxoisoindolin-4-yl)piperidin-1-yl)propyl)-2-((S)-1-(3-ethoxy-4-methoxyphenyl)-2-(methylsulfonyl)ethyl)-1,3-dioxoisoindolin-4-yl)acetamide] | ≥ 60 | – |
| CCOc1cc([C@@H](CS(C)(=O)=O)N2C(=O)c3cccc(NC(=O)CCCc4cn(CCNCc5ccc(OCc6scc7c6CN(C6CCC(=O)NC6=O)C7=O)cc5)nn4)c3C2=O)ccc1OC (stereo partly drawn) [Compound A48, 4-[1-(2-{[(4-{[5-(2,6-Dioxopiperidin-3-yl)-4-oxo-4H,5H,6H-thieno[3,4-c]pyrrol-1-yl]methoxy}phenyl)methyl]amino}ethyl)-1H-1,2,3-triazol-4-yl]-N-{2-[(1S)-1-(3-ethoxy-4-methoxyphenyl)-2-methanesulfonylethyl]-1,3-dioxo-2,3-dihydro-1H-isoindol-4-yl}butanamide] | 40 to 60 | ≥ 60 |
| O=C1CCC(N2Cc3c(csc3COc3ccc(CNCCCCCCCOc4cc(C(=O)Nc5c(Cl)cncc5Cl)ccc4OC(F)F)cc3)C2=O)C(=O)N1 (stereo not drawn) [Compound B18, N-(3,5-Dichloropyridin-4-yl)-4-(difluoromethoxy)-3-((7-((4-((5-(2,6-dioxo-piperidin-3-yl)-4-oxo-5,6-dihydro-4H-thieno[3,4-c]pyrrol-1-yl)methoxy)benzyl)amino)heptyl)-oxy)benzamide] | ≥ 60 | ≥ 60 |
| CCOc1cc([C@@H](CS(C)(=O)=O)N2C(=O)c3cccc(NC(=O)CCCCCN4CCN(CC(=O)Nc5ccc(C6CCC(=O)NC6=O)cc5)CC4)c3C2=O)ccc1OC (stereo partly drawn) [Compound A83, 6-[4-({[4-(2,6-Dioxopiperidin-3-yl)phenyl]carbamoyl}methyl)piperazin-1-yl]-N-{2-[(1S)-1-(3-ethoxy-4-methoxyphenyl)-2-methanesulfonylethyl]-1,3-dioxo-2,3-dihydro-1H-isoindol-4-yl}hexanamide] | ≥ 60 | ≥ 60 |
| CCOc1cc([C@@H](CS(C)(=O)=O)N2C(=O)c3c(N)ccc(CCCCCCCCCCCCN4CCC(c5cc(F)cc6c5CN(C5CCC(=O)NC5=O)C6=O)CC4)c3C2=O)ccc1OC (stereo partly drawn) [Compound A18, 4-Amino-7-(12-{4-[2-(2,6-Dioxopiperidin-3-yl)-6-fluoro-1-oxo-2,3-dihydro-1H-isoindol-4-yl]piperidin-1-yl}dodecyl)-2-[(1S)-1-(3-ethoxy-4-methoxyphenyl)-2-methanesulfonylethyl]-2,3-dihydro-1H-isoindole-1,3-dione] | ≥ 60 | ≥ 60 |
| CCOc1cc([C@@H](CS(C)(=O)=O)N2C(=O)c3cccc(NCCCCCCCCCN4CCC(c5cc6c(cc5F)C(=O)N(C5CCC(=O)NC5=O)C6)CC4)c3C2=O)ccc1OC (stereo partly drawn) [Compound A25, 4-[(9-{4-[2-(2,6-Dioxopiperidin-3-yl)-6-fluoro-1-oxo-2,3-dihydro-1H-isoindol-5-yl]piperidin-1-yl}nonyl)amino]-2-[(1S)-1-(3-ethoxy-4-methoxyphenyl)-2-methanesulfonylethyl]-2,3-dihydro-1H-isoindole-1,3-dione] | ≥ 60 | ≥ 60 |
| CCOc1cc([C@@H](CS(C)(=O)=O)N2C(=O)c3cc(CCCCCCCCCCCCC(=O)N[C@H](C(=O)N4C[C@H](O)C[C@H]4C(=O)NCc4ccc(-c5scnc5C)cc4)C(C)(C)C)cc(NC(C)=O)c3C2=O)ccc1OC [Compound A61, (2S,4R)-1-[(2S)-2-(13-{7-Acetamido-2-[(1S)-1-(3-ethoxy-4-methoxyphenyl)-2-methanesulfonylethyl]-1,3-dioxo-2,3-dihydro-1H-isoindol-5-yl}tridecanamido)-3,3-dimethylbutanoyl]-4-hydroxy-N-{[4-(4-methyl-1,3-thiazol-5-yl)phenyl]methyl}pyrrolidine-2-carboxamide] | ≥ 60 | ≥ 60 |
| Cc1ncsc1-c1ccc(CNC(=O)[C@@H]2C[C@@H](O)CN2C(=O)[C@@H](NC(=O)CCCCCCCCOc2cc(C(=O)Nc3c(Cl)cncc3Cl)ccc2OCC2CC2)C(C)(C)C)cc1 [Compound B22, (2S,4R)-1-((S)-2-(9-(2-(Cyclopropylmethoxy)-5-((3,5-dichloropyridin-4-yl)carbamoyl)phenoxy)nonanamido)-3,3-dimethylbutanoyl)-4-hydroxy-N-(4-(4-methylthiazol-5-yl)benzyl)pyrrolidine-2-carboxamide] | < 20 | 20 to 40 |
| CCOc1cc([C@@H](CS(C)(=O)=O)N2C(=O)c3cccc(CCCCCCCCCCN4CCC(c5cc6c(cc5F)C(=O)N(C5CCC(=O)NC5=O)C6)CC4)c3C2=O)ccc1OC (stereo partly drawn) [Compound A27, 4-(10-{4-[2-(2,6-Dioxopiperidin-3-yl)-6-fluoro-1-oxo-2,3-dihydro-1H-isoindol-5-yl]piperidin-1-yl}decyl)-2-[(1S)-1-(3-ethoxy-4-methoxyphenyl)-2-methanesulfonylethyl]-2,3-dihydro-1H-isoindole-1,3-dione] | ≥ 60 | ≥ 60 |
| CCOc1cc([C@@H](CS(C)(=O)=O)N2C(=O)c3cccc(NC(=O)CCCCCCCCCCOc4cc(-c5scnc5C)ccc4CNC(=O)[C@@H]4C[C@@H](O)CN4C(=O)[C@@H](NC(C)=O)C(C)(C)C)c3C2=O)ccc1OC [Compound A75, (2S,4R)-1-[(2S)-2-Acetamido-3,3-dimethylbutanoyl]-N-[(2-{[10-({2-[(1S)-1-(3-ethoxy-4-methoxyphenyl)-2-methanesulfonylethyl]-1,3-dioxo-2,3-dihydro-1H-isoindol-4-yl}-carbamoyl)decyl]oxy}-4-(4-methyl-1,3-thiazol-5-yl)phenyl)methyl]-4-hydroxypyrrolidine-2-carboxamide] | ≥ 60 | ≥ 60 |
| O=C1CCC(N2Cc3c(cc(F)cc3C3CCN(CCCCCCCCCOc4cc(C(=O)Nc5c(Cl)cncc5Cl)ccc4OC(F)F)CC3)C2=O)C(=O)N1 (stereo not drawn) [Compound B4, N-(3,5-Dichloropyridin-4-yl)-4-(difluoromethoxy)-3-((9-(4-(2-(2,6-dioxo-piperidin-3-yl)-6-fluoro-1-oxoisoindolin-4-yl)piperidin-1-yl)nonyl)oxy)benzamide] | ≥ 60 | – |
